Assay results taken from US11103526B2, “Methods for treatment using small molecule potassium-sparing diuretics and natriuretics” (University of Pittsburgh—Of the Commonwealth System of …, priority 2016, dated 2021).

Assays:
[1] = tested on: anesthetized rats; test: Protocol 1: head-to-head intravenous bolus in anesthetized rats (Example 11); format: in vivo, male Sprague-Dawley rats; settings: 33.5 μmoles/kg intravenous bolus versus vehicle
Procedure: Animals. Male Sprague-Dawley rats (Charles River; Wilmington, Mass.) approximately 16 weeks old were employed. The Institutional Animal Care and Use Committee approved all procedures. The investigation conforms to National Institutes of Health Guide for the Care and Use of Laboratory Animals.
Protocol 1. After inducing anesthetization with Inactin® (90 mg/kg, i.p.), each rat was positioned on an isothermal pad. A thermometer probe was inserted into the rectum, and the rat's body temperature was continuously monitored and maintained at 37° C. by adjusting the distance of a heat lamp from the animal's body. Using polyethylene (PE)-240 tubing, the trachea was cannulated to aid respiration. Next, a PE-50 cannula was inserted into the carotid artery and connected to a digital blood pressure analyzer (Micro-Med, Inc., Louisville, Ky.) for continuous measurement of mean arterial blood pressure (MABP) and heart rate (HR). A PE-50 cannula was placed in the jugular vein, and infusion of 0.9% saline (50 μl/min) began. After a stabilization period of approximately one hour, urine was collected for 30 minutes, while MABP and HR were time-averaged (Period 1: 0-30 minutes into protocol). Next, 8-aminoguanosine (33.5 μmoles/kg; 1 ml/kg) or 8-aminoguanine (33.5 μmoles/kg; 1 ml/kg) or vehicle (0.9% saline containing 0.03 N HCl; 1 ml/kg) was administered intravenously as a bolus. The dose was selected based on Examples 1-7. Rats were randomized to treatment groups, and the rats in each group received only one treatment. Ten minutes after the treatments, urine was collected for another 30 minutes (Period 2: […] into protocol). After a 15-minute rest period, urine was again collected for 30 minutes (Period 3: 85-115 minutes into protocol). During each urine collection period, the MABP and HR were continuously recorded. Further, at the midpoint of each 30-minute urine collection period, a blood sample (0.5 ml) was obtained to measure plasma creatinine (Creatinine Colorimetric Assay Kit; catalogue number, 500701; Cayman Chemical; Ann Arbor, Mich.) and aldosterone (Aldosterone ELISA Kit; catalogue number, ADI-900-173; Enzo Life Sciences, Farmingdale, N.Y.) and to determine sodium and potassium by flame photometry (Model IL-943; Instrumentations Laboratory Inc., Lexington, Mass.). Sodium and potassium were also measured in urine (flame photometry) as was glucose (Glucose Colorimetric Assay Kit; catalogue number, 10009582; Cayman Chemical). Creatinine clearance was calculated as an estimate of glomerular filtration rate (GFR).
Statistics. Statistical analysis was performed using 1- or 2-factor repeated measures analysis of variance (ANOVA) followed by a Fisher's Least Significant Difference (LSD) test if the effects in the ANOVA were significant. The criterion of significance was p<0.05. The values are presented as the mean±SEM. […]

[2] = Protocol 2: renal microdialysate and urine levels after intravenous bolus (Example 12); settings: after 33.5 μmoles/kg intravenous bolus
Procedure: Rats were prepared in a similar fashion to that described in Protocol 1, but with modifications. Specifically, microdialysis probes were inserted into the cortex and medulla of the right kidney and were perfused at 2 μl/min with 0.9% saline. The microdialysis probes used in this protocol were from Bioanalytical Systems (West Lafayette, Ind.; CMA/20 microdialysis probe 4 mm; outer diameter of 0.5 mm; 20,000 dalton membrane cut-off). After initiating the probe perfusions, the infusion rate of 0.9% saline via the jugular vein was reduced to 25 μl/min to avoid volume overload. The rats then stabilized for two hours for the kidney to recover from the trauma induced by the probe insertions.
Next, microdialysate from the renal cortex and medulla as well as urine were collected for 30 minutes, and MABP and HR were time averaged during this first (basal) period. Rats were then randomized to receive 8-aminoguanosine, 8-aminoguanine, or vehicle using the dose and manner described for Protocol 1. Ten minutes after the treatments, microdialysate from the renal cortex and medulla as well as urine were again collected for 30 minutes, and MABP and HR were time averaged during this treatment period. After 15 minutes, this procedure was repeated. 8-Aminoguanosine and 8-aminoguanine were measured in urine and microdialysate using ultra-performance liquid chromatography-tandem mass spectrometry (LC-MS/MS) as described below.
Assay for 8-Aminoguanosine and 8-Aminoguanine. The purines in the urine and microdialysate were measured by LC-MS/MS using a method similar to a previously described method (Jackson et al., J Biol Chem 284:33097-33106, 2009), but with modifications. Purines were separated using reversed-phase ultra-performance liquid chromatography (Waters UPLC BEH C18 column, 1.7 μm beads; 2.1×150 mm; Milford, Mass.) and quantified by selected reaction monitoring using a triple quadrupole mass spectrometer (TSQ Quantum-Ultra; ThermoFisher Scientific, San Jose, Calif.) with a heated electrospray ionization source. The mobile phase included a linear gradient flow rate (300 uL/min) of 1% acetic acid in water (pH, 3; mobile phase A) as well as 100% methanol (mobile phase B) and was delivered with a Waters Acquity ultra-performance liquid chromatographic system. […]
Microdialysis probes were inserted into the renal cortex and medulla of anesthetized rats; the rats stabilized for 2 hours and were then administered an intravenous bolus of vehicle (control group), 8-aminoguanosine (33.5 μmoles/kg), or 8-aminoguanine (33.5 μmoles/kg). The levels of these compounds were then measured in the renal cortex and medulla as well as in the urine using LC-MS/MS.

[3] = tested on: RBCs from SCD patients (HbSS); test: Hypoxia-induced sickling of RBCs from SCD patients; format: cell-based, human
Procedure: In addition to causing PH in SCD patients and HIV-infected patients, the contribution of PNPase to RBC sickling in SCD patients was assessed. Fresh RBCs were obtained from two adult SCD patients (HbSS); the RBCs were diluted in F-10 HAM buffer to a final hematocrit of 4%. Next, glucose was added for a final concentration of 5.5 mmol/L, and the samples were incubated at room air/temperature in 12-well plates. The RBCs were then treated with either vehicle, 8-aminoguanosine (2 μmol/L), inosine (2 μmol/L), or an 8-aminoguanosine and inosine combination. After 1.5 hours, the RBCs were placed in a hypoxic glove box and maintained under hypoxia (5% 02) for 3 hours, while undergoing mild agitation. At the end of incubation, to prevent reoxygenation-derived morphological changes, the RBCs were fixed under hypoxic conditions in the hypoxic glove box. The samples were assayed for percent sickling.

[4] = tested on: Sugen 5416+hypoxia-induced PH; test: Sugen 5416+hypoxia-induced angioproliferative pulmonary hypertension; format: in vivo, female Sprague Dawley rats; settings: 30 mg/kg/day in drinking water
From the text: A total of 36 female Sprague Dawley rats were used to determine whether administration of the PNPase inhibitor 8-aminoguanosine attenuates development of angioproliferative PH in animals with Sugene5416+hypoxia-induced PH. The animals were randomly assigned to receive subcutaneous injection of vehicle [(control group; n=8; 0.5% (w/v) carboxymethylcellulose sodium, 0.9% (w/v) sodium chloride, 0.4% (v/v) polysorbate 80, and 0.9% (v/v) benzyl alcohol in deionized water] or subcutaneous injection of SU5416 20 mg/kg (n=16; SU+Hx group). A subset of the SU5416-treated animals received 8-aminoguanosine (30 mg/kg/day in drinking water (n=12; 8-amino-guanosine group). On day 0, all SU5416-treated animals (SU+Hx and 8-aminoguanosine groups) were exposed to chronic hypoxia for 3 weeks. The animals were placed into normobaric plexiglas chambers (BioSpherix, Redfield, N.J., USA). The chambers were continuously flushed with nitrogen to maintain 10% oxygen and low CO2 concentrations (<0.5%) with the O2 and CO2 concentrations continuously monitored (PROOX110, BioSpherix oxygen controller and LB-2 CO2 analyzer, Sensormedics). At day 21, the animals were returned to a normoxic environment. Three weeks later (day 42), the animals were anesthetized and instrumented for RVPSP measurements. A PE-240 polyethylene catheter was inserted into the trachea to facilitate breathing, and the SPR-513 catheter (Millar Instruments) was inserted into right jugular vein and advanced into RV for RVPSP measurements. After 20-30-minutes of stabilization, RVPSP was recorded over 20 minutes. The animals were euthanized by anesthetic overdose, and the heart and lungs were collected for morphometric analyses.

In the case of `Nc1nc2[nH]c(N)nc2c(=O)[nH]1` [8-aminoguanine, 8-Aminoguanine], the MABP [1] was “neither 8-aminoguanosine nor 8-aminoguanine acutely affected”, the “glomerular filtration rate (GFR; creatinine clearance)” value [1] was “significantly lower” and the “heart rate (HR)” value [1] was “neither 8-aminoguanosine nor 8-aminoguanine acutely affected”. For the same molecule, the plasma aldosterone concentrations [1] was “neither 8-aminoguanosine nor 8-aminoguanine acutely affected”, the urinary glucose excretion [1] was “significantly greater” and the urinary potassium excretion [1] was “significantly lower”. The urinary sodium excretion [1] was “significantly greater”, the urine volume [1] was “significantly greater” and the “interstitial levels of 8-aminoguanine in the renal cortex” value ([2]; microdialysate) was “immediate, sustained, similar, and large increases”. The “interstitial levels of 8-aminoguanine in the renal medulla” value ([2]; microdialysate) was “immediate, sustained, similar, and large increases”, the “urinary levels of 8-aminoguanine” value ([2]; urine) was “immediate, sustained, similar, and large increases” and the “urinary levels of 8-aminoguanosine” value ([2]; urine) was “did not affect”.

With `Nc1nc2c(nc(N)n2[C@@H]2O[C@H](CO)[C@@H](O)[C@H]2O)c(=O)[nH]1` [8-aminoguanosine, 8-Aminoguanosine] the MABP [1] was “neither 8-aminoguanosine nor 8-aminoguanine acutely affected”, the “glomerular filtration rate (GFR; creatinine clearance)” value [1] was “significantly lower” and the “heart rate (HR)” value [1] was “neither 8-aminoguanosine nor 8-aminoguanine acutely affected”. The plasma aldosterone concentrations [1] was “neither 8-aminoguanosine nor 8-aminoguanine acutely affected”, the urinary glucose excretion [1] was “significantly greater” and the urinary potassium excretion [1] was “significantly lower”. For the same molecule, the urinary sodium excretion [1] was “significantly greater”, the urine volume [1] was “significantly greater” and the “hypoxia-induced sickling of RBCs” value ([3]; 2 μmol/L, 1.5 hours pre-incubation, then hypoxia for 3 hours) was “significantly reduced”. For the same molecule, the “effect on the inhibitory effects of inosine on hypoxia-induced sickling” value ([3]; 8-aminoguanosine (2 μmol/L) combined with inosine (2 μmol/L)) was “potentiated”, the Fulton index ([4]; day 42) was “decreased” and the RV contractility ([4]; day 42) was “improved”. For the same molecule, the “RV end diastolic pressure (RV EDP)” value ([4]; day 42) was “decreased”, the “right ventricular peak systolic pressure (RVPSP)” value ([4]; day 42) was “significantly reduced” and the “grade 6 necrotizing arteritis lesions” value ([4]; histopathology) was “prevented sporadic occurrence”. The occlusive vascular lesions ([4]; histopathology) was “reduced the number” and the plexiform vascular lesions ([4]; histopathology) was “reduced the number”.
